Tests used:
[1] = tested on: HCC827 NSCLC cell with EGFR exon 19 deletion mutation; assay: HCC827 cell proliferation assay (counter screen); format: cell-based, human; details: Homo sapiens, HCC827 cells, 72 hours treatment, CellTiter96, read-out: anti-proliferation activity HCC827 EGFR Exon19 del, IC50 ranking
Method in brief: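 HCC827 cells (EGFR exon 19 deletion) were seeded at 8000 cells/well in RPMI1640 with 10% FBS, then exposed to increasing compound concentrations for 72 h at 37 °C. Viability was read by CellTiter96 AQueous One (MTS), absorbance 490 nm after 2–4 h.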

FLT3 kinase = molecular target: T1, FLT3 kinase (Homo sapiens, UniProt P36888); assay: FLT3 kinase assay (AlphaScreen); format: biochemical; details: read-out: Ranking of IC50 values, FLT3
T1 construct: purchased SignalChem
T1 sequence (P36888 27-993): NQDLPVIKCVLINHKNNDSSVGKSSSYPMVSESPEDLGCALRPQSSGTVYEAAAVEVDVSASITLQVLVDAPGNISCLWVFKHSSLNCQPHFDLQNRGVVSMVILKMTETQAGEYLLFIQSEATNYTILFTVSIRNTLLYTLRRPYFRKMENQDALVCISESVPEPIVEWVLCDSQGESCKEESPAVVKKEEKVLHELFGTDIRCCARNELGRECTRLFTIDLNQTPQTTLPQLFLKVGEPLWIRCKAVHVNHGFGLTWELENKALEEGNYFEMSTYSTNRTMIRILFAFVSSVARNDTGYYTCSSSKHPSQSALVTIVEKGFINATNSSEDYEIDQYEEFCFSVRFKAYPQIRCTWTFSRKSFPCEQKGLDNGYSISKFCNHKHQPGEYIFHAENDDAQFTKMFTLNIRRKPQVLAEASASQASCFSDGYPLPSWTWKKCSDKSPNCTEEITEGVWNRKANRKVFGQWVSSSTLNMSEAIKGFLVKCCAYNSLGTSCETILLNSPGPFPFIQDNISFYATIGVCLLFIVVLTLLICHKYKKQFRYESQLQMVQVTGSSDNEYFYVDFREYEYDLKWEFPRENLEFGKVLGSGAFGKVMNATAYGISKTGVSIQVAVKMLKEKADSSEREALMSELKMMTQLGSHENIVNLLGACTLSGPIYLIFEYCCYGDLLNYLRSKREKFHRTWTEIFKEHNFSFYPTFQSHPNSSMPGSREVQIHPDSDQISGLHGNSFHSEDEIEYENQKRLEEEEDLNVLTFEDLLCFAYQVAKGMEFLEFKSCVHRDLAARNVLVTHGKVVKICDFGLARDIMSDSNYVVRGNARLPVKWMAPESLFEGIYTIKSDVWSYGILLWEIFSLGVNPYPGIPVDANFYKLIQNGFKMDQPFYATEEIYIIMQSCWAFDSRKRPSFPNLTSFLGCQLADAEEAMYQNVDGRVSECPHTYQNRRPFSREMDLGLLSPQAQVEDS
Method in brief: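 Recombinant FLT3 (1.5 ng) phosphorylated biotinylated poly(Glu4:Tyr1) with 10 μM ATP in MOPS pH 7.0 buffer containing 10 mM MgCl2, 30 min at 30 °C, stopped with EDTA. Product detected by AlphaScreen; IC50 from duplicate serial dilutions.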

Row | IC50 (FLT3 kinase) [µM] | Compound | IC50 [1] [µM]
1 | < 0.001 | Cn1ncc2ccc(-c3n[nH]c4c3Cc3sc(-c5ccc(CN6CCC(N7CCOCC7)CC6)cc5)cc3-4)cc21 [Compound 80, 4-(1-(4-(3-(1-methyl-1H-indazol-6-yl)-1,4-dihydro-thieno[2′,3′:4,5]cyclopenta [1,2-c]pyrazol-6-yl)benzyl)piperidin-4-yl) morpholine] | > 10
2 | < 0.001 | Cn1ncc2ccc(-c3n[nH]c4c3Cc3sc(C5CCNCC5)cc3-4)cc21 [Compound 96, 3-(1-methyl-1H-indazol-6-yl)-6-(piperidin-4-yl)-1,4-dihydrothieno [2′,3′:4,5]cyclopenta [1,2-c]pyrazole] | 1 to 10
3 | < 0.001 | Cn1ncc2ccc(-c3n[nH]c4c3Cc3sc(-c5ccc(CN6CCCOCC6)cc5)cc3-4)cc21 [Compound 97, 4-(4-(3-(1-methyl-1H-indazol-6-yl)-1,4-dihydro-thieno[2′,3′:4,5]cyclopenta [1,2-c]pyrazol-6-yl)benzyl)-1,4-oxazepane] | > 10
4 | < 0.001 | Cn1ncc2ccc(-c3n[nH]c4c3Cc3sc(C5CCN(C(=O)CN6CCOCC6)CC5)cc3-4)cc21 [Compound 98, 1-(4-(3-(1-methyl-1H-indazol-6-yl)-1,4-dihydro-thieno[2′,3′:4,5]cyclopenta [1,2-c]pyrazol-6-yl)piperidin-1-yl)-2-morpholinoethan-1-one] | > 10
5 | < 0.001 | Cn1ncc2ccc(-c3n[nH]c4c3Cc3sc(-c5ccc(CN6CCCC6)cc5)cc3-4)cc21 [Compound 99, 3-(1-methyl-1H-indazol-6-yl)-6-(4-(pyrrolidin-1-ylmethyl)phenyl)-1,4-dihydrothieno[2′,3′:4,5] cyclopenta[1,2-c]pyrazole] | > 10
6 | < 0.001 | Cn1ncc2ccc(-c3n[nH]c4c3Cc3sc(-c5ccc(CN6CCCCC6)cc5)cc3-4)cc21 [Compound 100, 3-(1-methyl-1H-indazol-6-yl)-6-(4-(piperidin-1-ylmethyl)phenyl)-1,4-dihydrothieno[2′,3′:4,5] cyclopenta[1,2-c]pyrazole] | > 10
7 | < 0.001 | Cn1ncc2ccc(-c3n[nH]c4c3Cc3sc(-c5ccc(CN6CC7(COC7)C6)cc5)cc3-4)cc21 [Compound 102, 6-(4-(3-(1-methyl-1H-indazol-6-yl)-1,4-dihydro-thieno[2′,3′:4,5]cyclopenta [1,2-c]pyrazol-6-yl)benzyl)-2-oxa-6-azaspiro [3.3]heptane] | > 10
8 | < 0.001 | Cn1ncc2ccc(-c3n[nH]c4c3Cc3sc(-c5ccc(CN6CCC6)cc5)cc3-4)cc21 [Compound 103, 6-(4-(azetidin-1-ylmethyl)phenyl)-3-(1-methyl-1H-indazol-6-yl)-1,4-dihydro-thieno[2′,3′:4,5]cyclopenta [1,2-c]pyrazole] | > 10
9 | 0.001 to 0.01 | Cn1ncc2ccc(-c3n[nH]c4c3Cc3sc(-c5ccc(CN6CC(F)(F)C6)cc5)cc3-4)cc21 [Compound 104, 6-(4-((3,3-difluoroazeti-din-1-yl)methyl)phenyl)-3-(1-methyl-1H-indazol-6-yl)-1,4-dihydrothieno [2′,3′:4,5]cyclopenta [1,2-c]pyrazole] | > 10
10 | < 0.001 | COC1CN(Cc2ccc(-c3cc4c(s3)Cc3c(-c5ccc6cnn(C)c6c5)n[nH]c3-4)cc2)C1 [Compound 105, 6-(4-((3-methoxyazeti-din-1-yl)methyl)phenyl)-3-(1-methyl-1H-indazol-6-yl)-1,4-dihydrothieno [2′,3′:4,5]cyclopenta [1,2-c]pyrazole] | > 10

Source: US12448394B2, “Heterocyclic pyrazole derivatives as type III receptor tyrosine kinase inhibitors” (DEVELOPMENT CENTER FOR BIOTECHNOLOGY, priority 2019, dated 2025)
